In publication PMC10741027, “Risk Assessment of Psychotropic Drugs on Mitochondrial Function Using In Vitro Assays” (Biomedicines, 2023):
Like-named read-outs stand apart in the source and are kept apart here.

Experiments:
[1] = test system: HepG2 cells; experiment: Glu/Gal assay: cellular ATP (CellTiter-Glo) after 24 h in glucose or galactose media; details: for AC50 / minimal effective concentration: Homo sapiens, HepG2, 24 h; for Effect on cell viability / ATP in Glu and Gal media (in words): 24 h incubation, top concentration
[2] = test system: CII-linked respiration; details: read-out: CII-linked respiration IC50, cited from earlier work
[3] = test system: HepG2 cells; experiment: Acute extracellular flux (AEF) assay in intact HepG2 cells (Seahorse XFe96); assay type: cell-based, human
[4] = test system: CI-linked respiration; details: read-out: CI-linked respiration IC50, cited from earlier work
[5] = literature values, plasma or serum of adult humans when possible; ref 68-88 (per drug, Table 2 Cmax Reference); cited from earlier work
[6] = test system: rat liver mitochondria (CII-linked respiration); experiment: High-resolution respirometry, MMP and ROS in isolated rat liver mitochondria (Oroboros O2k); assay type: biochemical; details: for % MMP / % O2 consumption: basal succinate-driven respiration, normalized to control; for Mode of action on respiration in isolated RLM (in words): CII-linked respiration
Protocol: Mitochondria were isolated from adult Wistar Rat liver. […] The liver was homogenized with 10 passes in a loose-fitting homogenizer, followed by 10 passes in a tight-fitting homogenizer, and filtered through muslin. The tissue homogenate was then centrifuged at 1000× g for 10 min at 4 °C and the supernatants were further centrifuged at 10,000× g for 10 min. The centrifugation steps were repeated, preserving the pellet. […] Protein concentration was determined using the Bradford method with bovine serum albumin as the standard. The Oroboros® Oxygraph-2K (Oroboros Instruments, Innsbruck, Austria) was used to simultaneously analyze high-resolution respirometry and mitochondrial membrane potential (MMP). […] At the beginning of each experiment, the O2k chambers were filled with 2 mL of reaction buffer (200 mM sucrose, 25 mM KCl, 5 mM MgCl2, 4 mM KH2PO4, 5 mM MOPS, pH 7.4) and equilibrated with air at 37 °C. During the experiments, the incubation chambers were kept at constant temperature by Peltier control (±0.001 °C) and the medium was stirred using white PVDF-coated stirrers (750 rpm). […] This was followed by serial additions of the drugs to assess their dose-dependent effect on the MMP and mitochondrial respiration. Injection of RLM results in an uptake of safranin and a corresponding decline in the fluorescence signal.

[7] = test system: rPFO permeabilized HepG2 cells; experiment: Mitochondrial respiratory complexes in rPFO permeabilized HepG2 cells (Seahorse XF); details: for AC50: Homo sapiens, HepG2, read-out: Pyruvate Respiration AC50
[8] = test system: respiratory CI; parameters: method as in PMID 9309697; details: human brain cortex; read-out: CI inhibition IC50; cited from earlier work
[9] = test system: complex I; parameters: method as in PMID 31104106; details: 50 µM, 30 min incubation; cited from earlier work
[10] = test system: ADP-stimulated respiration; details: isolated rat liver mitochondria; cited from earlier work
[11] = isolated mitochondria, partial inhibition
[12] = Homo sapiens, HepG2, minimum effective concentration crossing vehicle control threshold, read-out: MEC ATP Production
[13] = Homo sapiens, HepG2, minimum effective concentration crossing vehicle control threshold, read-out: MEC OCR
[14] = Homo sapiens, HepG2, minimum effective concentration crossing vehicle control threshold, read-out: MEC Proton Leak
[15] = Homo sapiens, HepG2, minimum effective concentration crossing vehicle control threshold, read-out: MEC Reserve Capacity
[16] = Homo sapiens, HepG2, concentration at which 50% maximum effect is observed, read-out: AC50 ATP Production
[17] = Homo sapiens, HepG2, concentration at which 50% maximum effect is observed, read-out: AC50 ECAR
[18] = Homo sapiens, HepG2, concentration at which 50% maximum effect is observed, read-out: AC50 OCR
[19] = Homo sapiens, HepG2, concentration at which 50% maximum effect is observed, read-out: AC50 Proton Leak
[20] = Homo sapiens, HepG2, concentration at which 50% maximum effect is observed, read-out: AC50 Reserve Capacity
[21] = Homo sapiens, HepG2, minimum effective concentration crossing vehicle control threshold, read-out: MEC ECAR

| Compound | AC50 ([1]; read-out: Gal AC50) | minimal effective concentration ([1]; read-out: Gal MEC) | AC50 ([1]; read-out: Glu AC50) | minimal effective concentration [3, 12] | minimal effective concentration [3, 13] | minimal effective concentration [3, 14] | minimal effective concentration [3, 15] | AC50 [3, 16] | AC50 [3, 17] | AC50 [3, 18] | AC50 [3, 19] | AC50 [3, 20] | Cmax [5] | % MMP ([6]; 20 μM) | % O2 consumption ([6]; 20 μM) | % MMP ([6]; 50 μM) | % O2 consumption ([6]; 50 μM) | minimal effective concentration ([1]; read-out: Glu MEC) | further results |
| --- | --- | --- | --- | --- | --- | --- | --- | --- | --- | --- | --- | --- | --- | --- | --- | --- | --- | --- | --- |
| NC(=O)N1c2ccccc2C=Cc2ccccc21 [Carbamazepine] | > 600 µM | 408 µM | > 600 µM | 165 µM | 13.1 µM | 97 µM | 137 µM | 363 µM | > 600 µM | > 600 µM | > 600 µM | > 190 µM | 6300 nM |  |  |  |  |  | IC50 [2, 11]: 182 µM; IC50 [4, 11]: 353 µM |
| CN(C)CCCN1c2ccccc2Sc2ccc(Cl)cc21 [Chlorpromazine] | 16.9 µM | 10.5 µM | 15.9 µM | 94.2 µM | 73.4 µM | 31 µM | 78.4 µM | > 100 µM | > 100 µM | > 100 µM | > 100 µM | > 100 µM | 900 nM | 88% | 111% | 79% | 125% | 10.7 µM | % MMP ([6]; 100 μM): 72%; % O2 consumption ([6]; 100 μM): 131%; Mode of action on respiration in isolated RLM (in words) [6]: uncoupler of OXPHOS; Mode of action on respiration in isolated RLM (in words) ([6]; listed as chlorpromazine): uncoupler in basal respiration and an ETC inhibitor under uncoupled respiration; IC50 ([6]; CII-linked, succinate + rotenone, stimulated with 0.25 µM CCCP, 50–400 µM, read-out: IC50 uncoupled respiration): 135 µM; ROS production ([6]; uncoupled respiration, increasing concentrations): reduction in the production of ROS; Most sensitive mechanism / response in permeabilized HepG2 assay (OCR) ([7]; in words): did not show a significant response; minimal effective concentration [3, 21]: 15.6 µM; IC50 ([4]; pig brain mitochondria): 116 µM; IC50 [8]: 400 µM |
| CN1CCN(C2=Nc3cc(Cl)ccc3Nc3ccccc32)CC1 [Clozapine] | 60.8 µM | 44.4 µM | 56.7 µM | 37.3 µM |  |  |  | > 100 µM | > 100 µM |  |  |  | 220 nM |  |  |  |  | 34.1 µM | decrease of complex I activity [9]: 85%; minimal effective concentration [3, 21]: 20.2 µM |
| O=C(CCCN1CCC(O)(c2ccc(Cl)cc2)CC1)c1ccc(F)cc1 [Haloperidol] | 78.6 µM | 26 µM | 57.5 µM |  |  |  |  |  |  |  |  |  | 20 nM | 88% | 85% | 69% | 77% | 26.2 µM |  |
| Nc1nnc(-c2cccc(Cl)c2Cl)c(N)n1 [Lamotrigine] | > 100 µM |  | > 100 µM | 14 µM |  |  |  | 75.7 µM | > 100 µM | > 100 µM | > 100 µM | > 100 µM | 4000 nM |  |  |  |  |  | Effect on cell viability / ATP in Glu and Gal media (in words) [1]: no cytotoxicity; IC50 [2, 11]: 381 µM; IC50 [4, 11]: 332 µM |
| Cc1cc2c(s1)Nc1ccccc1N=C2N1CCN(C)CC1 [Olanzapine] |  |  |  |  |  |  |  |  |  |  |  |  | 20 nM | 92% | 90% | 90% | 92% |  | decrease in the MMP ([6]; 50 µM): 10%; % MMP ([6]; 50 μM, listed as olanzapine): mild dissipation of the membrane potential |
| OCCOCCN1CCN(C2=Nc3ccccc3Sc3ccccc32)CC1 [Quetiapine] | 79 µM | 57.7 µM | 76.7 µM | 92.3 µM | 19 µM |  | 26.1 µM | > 150 µM |  | > 150 µM |  | 124 µM | 1880 nM |  |  |  |  | 49.3 µM | AC50 [7]: > 150 µM |
| C=C(C)[C@H]1Cc2c(ccc3c2O[C@@H]2COc4cc(OC)c(OC)cc4[C@@H]2C3=O)O1 [Rotenone] | 0.00605 µM | 0.002 µM | 27.8 µM |  |  |  |  |  |  |  |  |  |  |  |  |  |  | 0.29 µM | AC50 [7]: 0.0071 µM; AC50 ([3]; Homo sapiens, HepG2, read-out: AC50 ATP Production): 0.0459 µM; AC50 ([3]; Homo sapiens, HepG2, read-out: AC50 ECAR): > 1 µM; AC50 ([3]; Homo sapiens, HepG2, read-out: AC50 OCR): 0.0433 µM; AC50 ([3]; Homo sapiens, HepG2, read-out: AC50 Proton Leak): 0.213 µM; AC50 ([3]; Homo sapiens, HepG2, read-out: AC50 Reserve Capacity): 0.0106 µM; minimal effective concentration ([3]; Homo sapiens, HepG2, read-out: MEC ATP Production): 0.0159 µM; minimal effective concentration ([3]; Homo sapiens, HepG2, read-out: MEC ECAR): 0.0274 µM; minimal effective concentration ([3]; Homo sapiens, HepG2, read-out: MEC OCR): 0.0053 µM; minimal effective concentration ([3]; Homo sapiens, HepG2, read-out: MEC Proton Leak): 0.012 µM; minimal effective concentration ([3]; Homo sapiens, HepG2, read-out: MEC Reserve Capacity): < 0.003 µM |
| CN1CCN(CCCN2c3ccccc3Sc3ccc(C(F)(F)F)cc32)CC1 [Trifluoperazine] | 1.13 µM | 0.8 µM | 1 µM |  |  |  | < 0.002 µM |  |  |  |  | 0.157 µM | 5 nM |  |  |  |  | 0.75 µM | Effect on cell viability / ATP in Glu and Gal media (in words) [1]: complete loss of cell viability in both media; minimal effective concentration ([3]; minimum effective concentration crossing vehicle control threshold, read-out: MEC Reserve Capacity): <0.002 µM; inhibition of ADP-stimulated respiration (concentration) [10]: 66 µM |
| O=C1Cc2cc(CCN3CCN(c4nsc5ccccc45)CC3)c(Cl)cc2N1 [Ziprasidone] | > 40 µM | 28.3 µM |  | 0.95 µM |  | 0.12 µM |  | > 12.7 µM |  |  | 2.19 µM |  | 110 nM |  |  |  |  |  | IC50 ([2]; pig brain mitochondria): 86 µM; IC50 ([4]; pig brain mitochondria): 188 µM |
